Patent publication USRE32519E, “Sulfur-containing isoquinoline derivatives, process for the preparation thereof and pharmaceutical compositions containing them” (Chinoin Gyogyszer es Vegyeszeti Termekek Gyara, priority 1979, dated 1987)
Structures can show the parent of a compound that is named as a salt. Where two headings read alike, the source gives them in different places.

What was measured:
[1] = biological target: T1, cyclic oxygenase (Ovis aries, UniProt P05979); assay: effect on biosynthesis of prostaglandins: activity of cyclic oxygenase, oxygen consumption with arachidonic acid substrate (Clark electrode); type: biochemical, sheep; details: for AC50: concentration for 50% increase in oxygen consumption; for EC (100% increase): concentration for 100% increase in oxygen consumption, read-out: AC100%
T1 construct: As an enzyme source a homogenizate of sheep spermatocele; from tissue; host or cells: homogenate of sheep 'spermatocele' (read as seminal vesicle)
T1 sequence (P05979 25-600): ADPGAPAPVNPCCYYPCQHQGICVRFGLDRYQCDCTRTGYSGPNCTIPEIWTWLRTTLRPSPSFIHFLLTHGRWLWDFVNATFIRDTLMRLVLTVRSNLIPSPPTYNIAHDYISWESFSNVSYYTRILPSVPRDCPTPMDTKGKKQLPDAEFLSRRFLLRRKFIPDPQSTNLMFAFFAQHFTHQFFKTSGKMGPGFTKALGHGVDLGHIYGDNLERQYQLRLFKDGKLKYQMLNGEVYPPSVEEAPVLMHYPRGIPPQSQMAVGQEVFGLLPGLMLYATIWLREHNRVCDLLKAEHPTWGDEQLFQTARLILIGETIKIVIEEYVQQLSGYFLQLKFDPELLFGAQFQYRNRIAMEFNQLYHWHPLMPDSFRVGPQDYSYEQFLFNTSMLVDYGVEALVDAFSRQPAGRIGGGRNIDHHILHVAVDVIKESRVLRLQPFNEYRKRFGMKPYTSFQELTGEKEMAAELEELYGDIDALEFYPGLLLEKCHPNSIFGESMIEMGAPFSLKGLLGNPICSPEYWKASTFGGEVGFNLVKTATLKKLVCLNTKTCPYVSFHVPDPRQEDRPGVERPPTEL
Procedure: The effect of the compounds of the formula (I) on the biosynthesis of prostaglandins was determined by a known technique (J. Biol. Chem., 246, 6700; 1971). As an enzyme source a homogenizate of sheep spermatocele and as a substrate arachidonic acid were used. The transformation of the substrate, which involves oxygen consumption, was monitored on the basis of the change of the concentration of dissolved oxygen, which was measured by a Clark electrode. During the measurements the concentration of the active compounds, which involved a 50% and 100%, respectively, […] in the oxygen consumption were determined. The concentrations were expressed in μM/lit. The results obtained are contained in the Table below. |The effect of the compounds of the formula |(I) on the activity of cyclic oxygenase |Substrate: arachidonic acid

[2] = test system: acetylcholine; assay: antagonistic activity against acetylcholine on ileum of guinea pigs
[3] = test system: serotonine; assay: serotonine antagonistic effect on gastric fundus strip of rats; details: 10 μg/ml. antagonistic dose
[4] = test system: paw oedema; assay: antiinflammatory activity, carrageenien-induced paw oedema on rats; type: in vivo
Procedure: The diuretic activity of the compounds of the formula (I) was tested on rats. The quantity of the urine passed in 4 hours and of the discharged Na^+ and K^+ ions were determined by known methods (Arzneimitt. Forsch. 27, 559; 1978). The antiinflammatory activity was tested in paw oedema on rats. The oedema was induced by […] inhibition was expressed in %.

[5] = test system: isolated trachea of guinea pigs; assay: relaxant activity on isolated trachea of guinea pigs; details: for relaxant effect relative to theophylline: 1 μg/ml. dose; for relaxant activity relative to theophylline: related to a 95 to 100% relaxation
Procedure: According to a test carried out on isolated trachea of guinea pigs (J. Pharm. Pharmac. 31, 798; 1979) the compounds prepared according to the invention have a relaxant activity. […] The activity of the compounds obtained in Example 4 is significant also at a dose of 0.1 μg/ml.

[6] = acute toxicity (LD50) on mice; details: mouse, in vivo, po
[7] = test system: histamine; assay: antagonistic activity against histamine on ileum of guinea pigs; details: for effect against histamine relative to theophylline: 50 μg/ml. antagonistic dose
[8] = diuretic activity on rats, quantity of urine passed in 4 hours; type: in vivo; details: 2 mg/kg. dose, compared with 2 mg/kg. p.o. Hypothiazid
Procedure: The diuretic activity of the compounds of the formula (I) was tested on rats. The quantity of the urine passed in 4 hours and of the discharged Na^+ and K^+ ions were determined by known methods (Arzneimitt. Forsch. 27, 559; 1978). The antiinflammatory activity was tested in paw oedema on rats. The oedema was induced by carrageenien and the inhibition was expressed in %.

AC50 [1] [µM]	EC (100% increase) [1] [µM]	SMILES	inhibition (serotonine antagonistic effect) [3] [%]	other results
720	1800	COc1cc2c(cc1OC)C(C(C#N)SCC(=O)NN)=NCC2 (stereo not drawn) [Example 22, α-(carbohydrazidomethyl)-mercapto-6,7-dimethoxy-3,4-dihydro-1-isoquinolyl-acetonitrile]	–	–
–	–	Cn1c(=O)c2[nH]cnc2n(C)c1=O [theophylline, reference compound]	8	inhibition against acetylcholine ([2]; 50 μg/ml. antagonistic dose): 16%; maximum inhibition (acetylcholine) ([2]; at a dose of 200 μg/ml.): 30%
62	124	COc1cc2c(cc1OC)C(C(C#N)SCCN(C)C)=NCC2 (stereo not drawn) [Example 15, α-(2-dimethylaminoethyl)-mercapto-6,7-dimethoxy-3,4-dihydro-1-isoquinolyl-acetonitrile hydrochloride]	–	–
69	138	CCOC(=O)CSC(C#N)C1=NCCc2cc(OC)c(OC)cc21 (stereo not drawn) [Example 18, α(ethoxycarbonyl)-methyl-mercapto-6,7-dimethoxy-3,4dihydro-1-isoquinolyl-acetonitrile]	–	–
280	395	CCN(CC)CCSC(C#N)C1=NCCc2cc(OC)c(OC)cc21 (stereo not drawn) [Example 14, α-(2-diethylaminoethyl)-mercapto-6,7-dimethoxy-3,4-dihydro-1-isoquinolyl-acetonitrile hydrochloride]	–	–
48	96	N#CC(SCCC(=O)O)C1=NCCc2ccccc21 (stereo not drawn) [Example 8, α-(2-carboxyethyl)-mercapto-3,4-dihydro-1-isoquinolyl-acetonitrile]	8	–
40	80	N#CC(SCC(=O)O)C1=NCCc2ccccc21 (stereo not drawn) [Example 5, α-carboxy-methyl-mercapto-3,4-dihydro-isoquinolyl-acetonitrile]	–	–
105	–	COc1cc2c(cc1OC)C(C(C#N)SC(C)C(=O)O)=NCC2 (stereo not drawn) [Example 12, α-(1-carboxy-1-ethyl)-mercapto-6,7-dimethoxy-3,4-dihydro-1-isoquinolyl-acetonitrile]	–	–

SMILES	AC50 [1] [µM]	EC (100% increase) [1] [µM]	inhibition (serotonine antagonistic effect) [3] [%]	other results
COc1cc2c(cc1OC)C(C(C#N)SCCCO)=NCC2 (stereo not drawn) [Example 4, α-(3-hydroxy-propylmercapto)-6,7-dimethoxy-3,4-dihydro-1-isoquinolyl-acetonitrile]	70	140	80	activity against acetylcholine relative to theophylline ([2]; 50 μg/ml. antagonistic dose): six-times more active; maximum inhibition (acetylcholine) ([2]; in a dose of 50 μg/ml.): 100%; inhibition in paw oedema test ([4]; 100 mg/kg. p.o. dose, rats): 20%; relaxant effect relative to theophylline [5]: five-times more effective than theophylline; relaxant activity ([5]; dose of 0.1 μg/ml.): significant; relaxant activity relative to theophylline [5]: five-times higher activity than theophylline; LD50 ([6]; p.o. on mice, read-out: LD50): > 500 mg/kg; maximum inhibition (histamine) ([7]; 50 μg/ml.): 100%; effect against histamine relative to theophylline [7]: six-times more potent
COc1cc2c(cc1OC)C(C(C#N)SCCO)=NCC2 (stereo not drawn) [Example 3, α-(2-hydroxy-ethylmercapto)-6,7-dimethoxy-3,4-dihydro-1-isoquinolyl-acetonitrile]	100	200	–	inhibition in paw oedema test ([4]; 100 mg/kg dose, rats (route not given)): 20%; LD50 ([6]; per os on mice, read-out: DL): > 500 mg/kg
COc1cc2c(cc1OC)C(C(C#N)SCCC(=O)O)=NCC2 (centres unmarked) [Example 9]	95	–	–	activity against acetylcholine relative to theophylline ([2]; 50 μg/ml. antagonistic dose): the same activity; maximum inhibition (acetylcholine) ([2]; in a dose of 100 μg/ml.): 55%; relaxant effect relative to theophylline [5]: only half of its effect; relaxant activity relative to theophylline [5]: the same activity as theophylline; increase of the quantity of the urine secreted [8]: to the same extent as a 2 mg/kg. p.o. dose of Hypothiazid; LD50 ([6]; p.o. on mice, read-out: LD50): > 500 mg/kg; effect against histamine relative to theophylline [7]: the same effect as theophylline; maximum inhibition (histamine) ([7]; 100 μg/ml.): 26%
COc1cc2c(cc1OC)C(C(C#N)SCC(=O)O)=NCC2 (stereo not drawn) [Example 6, α-carboxymethylmercapto-6,7-dimethoxy-3,4-l-dihydro-1-isoquinolyl-acetonitrile]	60	225	16	increase of the quantity of the urine secreted [8]: to the same extent as a 2 mg/kg. p.o. dose of Hypothiazid; LD50 ([6]; p.o. on mice, read-out: LD50): > 500 mg/kg
